Measurements taken from US20140205631A1, “Stimulation of vaccination by angiotensin peptides” (University of Southern California, priority 2013, published 2014).

Assays:
HIV-gp120 antigen [1] = experiment: Rectal secretion SIgA antibody titers (ELISA) after vaccination of cats; format: in vivo, human immunodeficiency virus (HIV); details: parenteral vaccination or topical application of Fel-O-Vax FIV with A(1-7)
Method: (§1) Animals: Eleven (11) female outbred cats>24 weeks old that were free of FIV, feline leukemia virus (FeLV) and feline infectious peritonitis virus were employed. The animals were restrained for the application of test articles to mucous membranes and collection of blood and mucosal secretions. Sedation, if necessary, was induced by subcutaneous administration of ketamine hydrochloride (22 mg/kg) and acepromazine maleate (0.1 mg/kg). Euthanasia was accomplished with a lethal overdose of barbiturates. All activities were approved by the Institutional Animal Care and Use Committee and supervised by veterinary staff.
(§2) Vaccine Preparation: Fel-O-Vax FIV (Fort Dodge Animal Health, Fort Dodge, Iowa) and A(1-7) was combined in a constant volume of 2% hydroxyethyl cellulose (2% HEC). The range of concentrations of A(1-7) ranged from 0 to 10 mg/mL with a constant 0.33 mL of Fel-O-Vax FIV suspended in each mL of the gel applied for vaccination purposes. Two control animals received intramuscular Fel-O-Vax FIV at baseline, week 3 and week 5. […]
(§3) The local immune response in mucosal secretions was evaluated against the homologous FIV-p24 antigen (Cell Biolabs, Inc, San Diego, Calif.) or the heterologous HIV-gp120 antigen (ImmunoDiagnostics, Inc, Woburn, Mass.). […] Plates were read at 450 nm.

FIV-p24 = experiment: Oral secretion IgG antibody titers (ELISA) after vaccination of cats; format: in vivo, feline immunodeficiency virus (FIV); details: Week 8, lowest dilution 1:4, elution factor 4-fold
Method: as §1
(§4) Vaccine Preparation: Fel-O-Vax FIV (Fort Dodge Animal Health, Fort Dodge, Iowa) and A(1-7) was combined in a constant volume of 2% hydroxyethyl cellulose (2% HEC). The range of concentrations of A(1-7) ranged from 0 to 10 mg/mL with a constant 0.33 mL of Fel-O-Vax FIV suspended in each mL of the gel applied for vaccination purposes. Two control animals received intramuscular Fel-O-Vax FIV at baseline, week 3 and week 5. One control animal had mucosal vaccination with Fel-O-Vax alone suspended in the 2% HEC without A(1-7) and one control animal received intramuscular Fel-O-Vax FIV with 0.3 mg/kg of A(1-7) at baseline, week 3 and week 5.
(§5) Delivery of angiotensin(1-7) and FIV vaccine to mucosal surfaces: 2% HEC, a viscous gel, was used as the vehicle for the topical delivery of angiotensin(1-7) and FIV vaccine. The topical vaccine was applied to the mucosal surface weekly for 6 consecutive weeks. 1.0 mL was applied to the muzzle for oral mucosal vaccination and 1.0 mL and 0.2 mL was instilled in the rectal and vaginal vaults, respectively for mucosal vaccination at these sites.
(§6) Measurement of Local Immune Response: The Weck-Cel Surgical Spear (Windsor Biomedical, Newton, N.H.) was used to obtain secretions. Once inserted, the sponge is allowed to remain in place for 5 minutes. The secretions were extracted by centrifugation with 300 μL of a buffer solution. The buffer solution is prepared by mixing 50 μL of 100× protease inhibitor cocktail and 250 μL of 10% Igepal (Sigma, St Louis, Mo., U.S.A.) with 4.7 ml of phosphate-buffered saline (PBS) containing 0.25% bovine serum albumin (BSA, Fraction V; Sigma). The 100× protease inhibitor cocktail contains 100 μg/mL aprotinin, 500 μg/mL leupeptin, 100 μg/mL bestatin (all Sigma), and 50 μg/mL 4-(2-Aminoethyl)-benzenesulfonyl fluoride hydrochloride (Roche Applied Sciences, U.S.A.) in phosphate buffered saline.
as §3

[2] = test system: mucosal SIgA antibody production; experiment: Local (mucosal) secretory IgA immune response after vaccination of cats, general statements; format: in vivo
Method: as §1, §2, §3

HIV-gp120 antigen [3] = experiment: Oral secretion SIgA antibody titers (ELISA) after vaccination of cats; format: in vivo, human immunodeficiency virus (HIV); details: for SIgA anti-HIV-gp120: oral, Week 8, lowest dilution 1:4, elution factor 4-fold
Method: as §1, §4, §5, §6
(§7) The local immune response in mucosal secretions was evaluated against the homologous FIV-p24 antigen (Cell Biolabs, Inc, San Diego, Calif.) or the heterologous HIV-gp120 antigen (ImmunoDiagnostics, Inc, Woburn, Mass.). Plates were prepared with 50 ng/mL FIV-p24 antigen or with 500 ng/mL HIV-gp120 antigen (Bachem Americans, Inc, Torrance, Calif.) incubated over night at 4° C., washed and the target sample added and incubated overnight again at 4° C. The plates were washed and the indicator goat anti-feline IgG (Accurate Chemical & Scientific Corp., Westbury, N.Y., working titer 1:10,000) or goat anti-feline IgA (Accurate Chemical & Scientific Corp., Westbury, N.Y., working titer 1:1,000) added and incubated for 24 hours at 4° C. Following a final wash, substrate solution was added. The stop solution was added after 15 minutes for the IgG reaction and after 30 minutes for the IgA reaction. Plates were read at 450 nm.

FIV-p24 antigen = experiment: as above; format: in vivo, feline immunodeficiency virus (FIV)
Method: as §1, §4, §5, §6, §7

[4] = topical Fel-O-Vax FIV + 10.0 A(1-7) in 2% HEC

Asp-Arg-Val-Tyr-Ile-His-Pro (DRVYIHP) [A(1-7)]
SIgA anti-HIV-gp120 (rectal, Table 4) (HIV-gp120 antigen [1]): High levels | IgG anti-FIV-p24 (FIV-p24; topical Fel-O-Vax FIV + 0.1 A(1-7) in 2% HEC): Negative | IgG anti-FIV-p24 (FIV-p24; topical Fel-O-Vax FIV + 0.2 A(1-7) in 2% HEC): Negative | IgG anti-FIV-p24 (FIV-p24; topical Fel-O-Vax FIV + 0.3 A(1-7) in 2% HEC): Negative | IgG anti-FIV-p24 (FIV-p24; [4]): Negative | local secretory IgA immune responses ([2]; angiotensin (1-7) co-administered with killed FIV (Fel-O-Vax FIV) vaccine): dramatic increase | induction of SIgA antibody production at the mucosal surface ([2]; following A(1-7)+FIV immunization, two month period of observation): sustained | SIgA-HIV-gp120 antibodies in oral secretions (HIV-gp120 antigen [3]; A(1-7) combined with the intramuscular injections of Fel-O-Vax FIV): even higher titers | dose response of oral SIgA-anti-HIV-gp120 antibody titers (HIV-gp120 antigen [3]; increasing A(1-7) concentrations in the topical vaccine): initial raise and then decline | SIgA anti-HIV-gp120 (HIV-gp120 antigen [3]; topical Fel-O-Vax FIV + 7.5 A(1-7) in 2% HEC): Negative | SIgA anti-HIV-gp120 (HIV-gp120 antigen [3]; [4]): Negative | SIgA-anti-HIV-gp120 antibody titers in oral secretions (HIV-gp120 antigen [3]; topical application of the FIV antigen and A(1-7), compared with intramuscular): Comparable levels | SIgA Anti-FIV-p24 (FIV-p24 antigen; IM Fel-O-Vax FIV + 0.3 mg/kg A(1-7), Week 2, lowest dilution Undilute): Negative | SIgA Anti-FIV-p24 (FIV-p24 antigen; IM Fel-O-Vax FIV + 0.3 mg/kg A(1-7), Week 4, lowest dilution Undilute): Undilute | SIgA Anti-FIV-p24 (FIV-p24 antigen; IM Fel-O-Vax FIV + 0.3 mg/kg A(1-7), Week 8, lowest dilution Undilute): Undilute | SIgA Anti-FIV-p24 (FIV-p24 antigen; topical Fel-O-Vax FIV + 0.1 A(1-7) in 2% HEC, Week 2, lowest dilution Undilute): Negative | SIgA Anti-FIV-p24 (FIV-p24 antigen; topical Fel-O-Vax FIV + 0.1 A(1-7) in 2% HEC, Week 4, lowest dilution Undilute): Negative | SIgA Anti-FIV-p24 (FIV-p24 antigen; topical Fel-O-Vax FIV + 0.1 A(1-7) in 2% HEC, Week 6, lowest dilution Undilute): Undilute | SIgA Anti-FIV-p24 (FIV-p24 antigen; topical Fel-O-Vax FIV + 0.1 A(1-7) in 2% HEC, Week 8, lowest dilution Undilute): Negative | SIgA Anti-FIV-p24 (FIV-p24 antigen; topical Fel-O-Vax FIV + 0.2 A(1-7) in 2% HEC, Week 2, lowest dilution Undilute): Negative | SIgA Anti-FIV-p24 (FIV-p24 antigen; topical Fel-O-Vax FIV + 0.2 A(1-7) in 2% HEC, Week 4, lowest dilution Undilute): Negative | SIgA Anti-FIV-p24 (FIV-p24 antigen; topical Fel-O-Vax FIV + 0.2 A(1-7) in 2% HEC, Week 6, lowest dilution Undilute): Negative | SIgA Anti-FIV-p24 (FIV-p24 antigen; topical Fel-O-Vax FIV + 0.2 A(1-7) in 2% HEC, Week 8, lowest dilution Undilute): Negative | SIgA Anti-FIV-p24 (FIV-p24 antigen; topical Fel-O-Vax FIV + 0.3 A(1-7) in 2% HEC, Week 2, lowest dilution Undilute): Negative | SIgA Anti-FIV-p24 (FIV-p24 antigen; topical Fel-O-Vax FIV + 0.3 A(1-7) in 2% HEC, Week 4, lowest dilution Undilute): Negative | SIgA Anti-FIV-p24 (FIV-p24 antigen; topical Fel-O-Vax FIV + 0.3 A(1-7) in 2% HEC, Week 6, lowest dilution Undilute): Negative | SIgA Anti-FIV-p24 (FIV-p24 antigen; topical Fel-O-Vax FIV + 0.3 A(1-7) in 2% HEC, Week 8, lowest dilution Undilute): Negative | SIgA Anti-FIV-p24 (FIV-p24 antigen; topical Fel-O-Vax FIV + 0.4 A(1-7) in 2% HEC, Week 4, lowest dilution Undilute): Undilute | SIgA Anti-FIV-p24 (FIV-p24 antigen; topical Fel-O-Vax FIV + 0.4 A(1-7) in 2% HEC, Week 6, lowest dilution Undilute): Negative | SIgA Anti-FIV-p24 (FIV-p24 antigen; topical Fel-O-Vax FIV + 5.0 A(1-7) in 2% HEC, Week 2, lowest dilution Undilute): Undilute | SIgA Anti-FIV-p24 (FIV-p24 antigen; topical Fel-O-Vax FIV + 7.5 A(1-7) in 2% HEC, Week 4, lowest dilution Undilute): Negative | SIgA Anti-FIV-p24 (FIV-p24 antigen; topical Fel-O-Vax FIV + 10.0 A(1-7) in 2% HEC, Week 2, lowest dilution Undilute): Negative | SIgA Anti-FIV-p24 (FIV-p24 antigen; topical Fel-O-Vax FIV + 10.0 A(1-7) in 2% HEC, Week 4, lowest dilution Undilute): Negative | SIgA Anti-FIV-p24 (FIV-p24 antigen; topical Fel-O-Vax FIV + 10.0 A(1-7) in 2% HEC, Week 6, lowest dilution Undilute): Negative | SIgA Anti-FIV-p24 (FIV-p24 antigen; topical Fel-O-Vax FIV + 10.0 A(1-7) in 2% HEC, Week 8, lowest dilution Undilute): Negative
